# According to US20250043031A1, “NOVEL DRYING METHOD FOR OLIGOSACCHARIDES” (INBIOSE N.V., priority 2021, published 2025):
# Assays:
# [1] = 25° C.; literature values (WO2018/164937, EFSA Journal); cited from earlier work
# [2] = Oligosaccharide analysis of ATFD powder: breakdown during the drying run; type: physicochemical; details: ATFD system B; 1-hour run (2′FL) or 2-hour run (LNnT, 6′SL); heated surface 64-70° C., 20-40 mbar
# Description: Neutral oligosaccharides were analyzed on a Waters™ Acquity H-class UPLC with Evaporative Light Scattering Detector (ELSD) or a Refractive Index (RI) detection. A volume of 0.7 μL sample was injected on a Waters™ Acquity UPLC BEH Amide column (2.1×100 mm; 130 Å; 1.7 μm) column with an Acquity UPLC BEH Amide VanGuard column, 130 Å, 2.1×5 mm. The column temperature was 50° C. The mobile phase consisted of a ¼ water and ¾ acetonitrile solution to which 0.2% triethylamine was added. The method was isocratic with a flow of 0.130 mL/min. […] The temperature of the RI detector was set at 35° C.
# (§1) Sialylated oligosaccharides were analyzed on a Waters™ Acquity H-class UPLC with Refractive Index (RI) detection. A volume of 0.5 μL sample was injected on a Waters™ Acquity UPLC BEH Amide column (2.1×100 mm; 130 Å; 1.7 μm). The column temperature was 50° C. The mobile phase consisted of a mixture of 70% acetonitrile, 26% ammonium acetate buffer (150 mM) and 4% methanol to which 0.05% pyrrolidine was added. The method was isocratic with a flow of 0.150 mL/min. The temperature of the RI detector was set at 35° C.
# as §1, with “Both neutral and sialylated sugars” for “Sialylated oligosaccharides”, “72% acetonitrile and 28%” for “70% acetonitrile, 26%”, “(100” for “(150”, “mM)” for “mM) and 4% methanol”, “0.1% triethylamine” for “0.05% pyrrolidine”, “0.260” for “0.150”
# A pilot ATFD system (i.e., system B as described throughout the Examples) was used to produce larger amounts of dried oligosaccharide. The inner diameter and length of the drying chamber is 15.1 cm and 41.7 cm, respectively. The heat exchanger area is 0.2 m^2. […] The amount of condensed water was measured and used to obtain the evaporation rate. The specific evaporation rate was calculated by dividing the evaporation rate by the used heat exchange area.
# [3] = Moisture / water content of dried oligosaccharide powder (Karl Fischer titration, infrared moisture analyzer); type: physicochemical; details: powder from ATFD system B; heated surface 64-70° C., 20-40 mbar, rotor 800-850 rpm; about 20% dry weight solution in reverse osmosis water
# Description: Sartorius MA150 Infrared Moisture Analyzer is used to determine the dry matter content of the oligosaccharides. 0.5 g of oligosaccharide is weighed on an analytical balance and is dried in the infrared moisture analyzer until the weight of the sample is stable. The mass of the dried sample divided by the mass of the sample before drying gives the dry matter content (in percent) of the oligosaccharides or sample including oligosaccharides. In a similar way a liquid sample is weighed, however, the amount of liquid weighed is adapted to the expected amount of dry matter in the liquid, so the mass of the dry matter is properly measurable on an analytical balance.
# A moisture analyzer measures the dry matter, but not the water content. Karl Fisher titration is used to determine the amount of water present in a powder, ingredient of food. […]
# The moisture content (MC) of sample was calculated using the following equation: […]
# For testing the principle of agitated thin film drying on oligosaccharides according to the disclosure, a model system (i.e., system A as described throughout the Examples) is used wherein the model directly translates to large scale manufacturing. […] The ATFD chamber was equipped with a Liebig condenser and a dropping funnel to condense and quantify the vapor release. […]
# Solutions (such as syrups) containing an oligosaccharide or a mixture of oligosaccharides were preheated to a temperature between 3° and 100° C. and pumped to the system with a peristaltic pump with a flow ranging from 0.1 to 1 kg/h. […] The amount of condensed water was measured and used to obtain the evaporation rate. The specific evaporation rate was calculated by dividing the evaporation rate by the used heat exchange area.
# A pilot ATFD system (i.e., system B as described throughout the Examples) was used to produce larger amounts of dried oligosaccharide. […] The amount of condensed water was measured and used to obtain the evaporation rate. The specific evaporation rate was calculated by dividing the evaporation rate by the used heat exchange area. […]
# [4] = Color of powder obtained by ATFD; type: physicochemical; details: ATFD system B; from 15 min (2′FL), 30 min (LNnT) or 20 min (6′SL) and at each subsequent time-point
# Description: In a first aspect, provided is a method for drying an oligosaccharide and/or for obtaining an oligosaccharide in the form of a solid (preferably a powder), the method comprising the steps of: • i) providing a solution comprising an oligosaccharide; and • ii) applying the solution to an agitated thin film dryer, • wherein the oligosaccharide has a degree of polymerization (DP) that is less than 16, preferably less than 15, even more preferably less than 14, even more preferably less than 13, even more preferably less than 12, even more preferably less than 11, even more preferably less than 10, even more preferably less than 9, even more preferably less than 8, most preferably less than 7. […] The “ICUMSA” refers to the International Commission for Uniform methods of Sugar Analysis, i.e., the unit used for the measurement of sugar color.
# A pilot ATFD system (i.e., system B as described throughout the Examples) was used to produce larger amounts of dried oligosaccharide. The inner diameter and length of the drying chamber is 15.1 cm and 41.7 cm, respectively. The heat exchanger area is 0.2 m^2. The heat exchanger area can be heated at 50-120° C. using steam. The distance between the rotor and wall is 0.9 mm. The blades can rotate at 200-2200 rpm. The condenser was operated with cooling water of 5-6° C. The amount of condensed water was measured and used to obtain the evaporation rate. The specific evaporation rate was calculated by dividing the evaporation rate by the used heat exchange area.
# [5] = Bulk density of powder (ASTM D1895 method A, i.e., ISO Method R 60); type: physicochemical; details: for bulk density of the powder obtained by ATFD, average during the run: ATFD system B powder; for bulk density of the spray dried powder: spray dried powder (comparison)
# Description: As used herein, the term “bulk density” is the weight of the particles of a particulate solid (such as a powder) in a given volume, and is expressed in grams per liter (g/L). The total volume that the particles of a particulate solid occupy depends on the size of the particles themselves and the volume of the spaces between the particles. Entrapped air between and inside the particles also can affect the bulk density. Thus, a particulate solid consisting of large, porous particles with large inter-particulate spaces will have a lower bulk density than a particulate solid consisting of small, non-porous particles that compact closely together. Bulk density can be expressed in two forms: “loose bulk density” and “tapped bulk density.” Loose bulk density (also known in the art as “freely settled” or “poured” bulk density) is the weight of a particulate solid divided by its volume where the particulate solid has been allowed to settle into that volume of its own accord (e.g., a powder poured into a container).
# Techniques for measuring bulk density are well known in the art. Loose bulk density may be measured using a measuring cylinder and weighing scales: the particulate solid is poured into the measuring cylinder and the weight and volume of the particulate solid; weight divided by volume gives the loose bulk density. Tapped bulk density can be measured using the same technique, with the addition of tapping the measuring cylinder a set number of times before measuring weight and volume. Automation of tapping ensures the number, timing and pressure of individual taps is accurate and consistent. Automatic tapping devices are readily available, an example being the Jolting Stampfvolumeter (STAV 203) from J. Englesmann A G.
# Lacto-N-neotetraose (LNnT) was recombinantly produced in E. coli according to Example 2, followed by a cell lysis treatment and/or broth clarification according to Example 4. The clarified broth was finally spray dried as described in Example 1 to obtain a powder comprising LNnT (74%), pLNnH (13%; para-lacto-N-neohexaose) and LNT-II (3%; lacto-N-triose II). A solution (16.1 kg) of LNnT was then prepared in reverse osmosis water such that the dry weight is 19.60%. The LNnT solution was then fed into the ATFD system B (it is referred to Example 1) at 7.7 kg/h. […] Every 5 minutes, a sample of the obtained powder was analyzed according to Example 1 (dry matter content, moisture content, oligosaccharide analysis, color).
# 6′-sialyllactse (6′SL) was recombinantly produced in E. coli according to Example 2, followed by a cell lysis treatment and/or broth clarification according to Example 4. […] Every 5 minutes, a sample of the obtained powder was analyzed according to Example 1 (dry matter content, moisture content, oligosaccharide analysis, color).
Compound,solubility in an aqueous solution [1],oligosaccharide broken down at the end of the run [2],mean moisture content [3],color of the obtained powder [4],"bulk density of the powder obtained by ATFD, average during the run [5] [g/L]",bulk density of the spray dried powder [5] [g/L]
2′-fucosyllactose,1410 mg/mL,less than 4%,2.47%,white to off-white,,
CC(=O)N[C@H]1[C@H](O[C@H]2[C@@H](O)[C@@H](CO)O[C@@H](O[C@H]3[C@H](O)[C@@H](O)C(O)O[C@@H]3CO)[C@@H]2O)O[C@H](CO)[C@@H](O[C@@H]2O[C@H](CO)[C@H](O)[C@H](O)[C@H]2O)[C@@H]1O (mixture of isomers) [Lacto-N-neotetraose],500 mg/mL,less than 10%,5.5%,white to off-white,509 ± 16,368
CC(=O)N[C@H]1[C@H]([C@H](O)[C@H](O)CO)O[C@@](O[C@H]2[C@@H](O)[C@@H](CO)O[C@@H](O[C@H]3[C@H](O)[C@@H](O)C(O)O[C@@H]3CO)[C@@H]2O)(C(=O)O)C[C@@H]1O (stereo partly drawn) [3′-sialyllactose],500 mg/mL,,,,,
CC(=O)N[C@H]1[C@H]([C@H](O)[C@H](O)CO)O[C@@](OC[C@H]2O[C@@H](O[C@H]3[C@H](O)[C@@H](O)[C@H](O)O[C@@H]3CO)[C@H](O)[C@@H](O)[C@H]2O)(C(=O)O)C[C@@H]1O [6′-sialyllactose],at least 500 g/L,less than 10%,6.2-6.8%,white to off-white,521 ± 10,321
CC(=O)N[C@H]1[C@H](O[C@H]2[C@@H](O)[C@@H](CO)O[C@@H](O[C@H]3[C@H](O)[C@@H](O)C(O)O[C@@H]3CO)[C@@H]2O)O[C@H](CO)[C@@H](O)[C@@H]1O[C@@H]1O[C@H](CO)[C@H](O)[C@H](O)[C@H]1O (stereo partly drawn) [Lacto-N-tetraose],400 mg/mL,,,,,
